Data taken from ChEMBL document CHEMBL1136141, “2-Phenyl-5,6-dihydro-2H-thieno[3,2-c]pyrazol-3-ol derivatives as new inhibitors of bacterial cell wall biosynthesis” (Bioorg Med Chem Lett, 2003).
Values after ≈ are worked out from the molar mass of the structure shown.

Experiments:
[1] = molecular target: T1, UDP-N-acetylenolpyruvoylglucosamine reductase (Staphylococcus aureus, UniProt P61431); assay: In vitro inhibitory activity against Staphylococcus aureus UDP-N-acetylmuramate dehydrogenase
T1 sequence (P61431 whole entry): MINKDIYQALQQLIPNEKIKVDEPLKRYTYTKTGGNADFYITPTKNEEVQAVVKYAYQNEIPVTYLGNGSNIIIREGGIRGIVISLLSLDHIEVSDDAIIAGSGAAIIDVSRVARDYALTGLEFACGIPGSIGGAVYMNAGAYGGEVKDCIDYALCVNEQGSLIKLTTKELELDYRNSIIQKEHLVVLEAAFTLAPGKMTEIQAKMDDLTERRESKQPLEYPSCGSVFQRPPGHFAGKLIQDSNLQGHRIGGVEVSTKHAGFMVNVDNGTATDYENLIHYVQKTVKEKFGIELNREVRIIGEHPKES

[2] = Minimum inhibitory activity in presence of 4% bovine serum albumin against Streptococcus pneumoniae GC1894 (PRSP); type: functional
Staphylococcus aureus [3] = assay: Minimum inhibitory activity against Staphylococcus aureus GC 2216 (ATCC); type: functional
[4] = Minimum inhibitory activity against MSCNS GC 646; type: functional
[5] = molecular target: T2, UDP-N-acetylmuramoylalanine--D-glutamate ligase (Staphylococcus aureus, UniProt P0A091); assay: In vitro inhibitory activity against Staphylococcus aureus UDP-N-acetylmuramoyl-L-alanyl-D-glutamate synthetase
T2 sequence (P0A091 whole entry): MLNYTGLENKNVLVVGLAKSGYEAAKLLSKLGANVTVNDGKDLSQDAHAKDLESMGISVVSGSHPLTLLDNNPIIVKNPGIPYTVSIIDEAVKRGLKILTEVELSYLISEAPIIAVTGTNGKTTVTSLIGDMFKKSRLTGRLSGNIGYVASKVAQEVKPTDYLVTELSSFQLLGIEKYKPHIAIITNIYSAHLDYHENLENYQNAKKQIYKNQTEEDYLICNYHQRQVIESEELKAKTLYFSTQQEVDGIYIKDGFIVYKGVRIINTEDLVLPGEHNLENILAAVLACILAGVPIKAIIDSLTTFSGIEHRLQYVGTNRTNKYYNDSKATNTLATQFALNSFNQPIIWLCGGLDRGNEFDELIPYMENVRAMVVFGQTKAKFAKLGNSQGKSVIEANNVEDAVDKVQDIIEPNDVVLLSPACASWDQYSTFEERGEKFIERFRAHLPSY

Enterococcus faecalis [6] = assay: Minimum inhibitory activity against Enterococcus faecalis GC 2242 (VRE); type: functional
Enterococcus faecalis [7] = assay: Minimum inhibitory activity against Enterococcus faecalis GC 4555 (ATCC); type: functional
Escherichia coli [8] = assay: Minimum inhibitory activity against Escherichia coli GC 4559; type: functional
Staphylococcus aureus [9] = assay: Minimum inhibitory activity against Staphylococcus aureus GC 1131 (MRSA); type: functional
[10] = molecular target: T3, UDP-N-acetylmuramate--L-alanine ligase (Staphylococcus aureus, UniProt O31211); assay: In vitro inhibitory activity against Staphylococcus aureus UDP-N-acetylmuramoyl-L-alanine synthetase
T3 sequence (O31211 whole entry): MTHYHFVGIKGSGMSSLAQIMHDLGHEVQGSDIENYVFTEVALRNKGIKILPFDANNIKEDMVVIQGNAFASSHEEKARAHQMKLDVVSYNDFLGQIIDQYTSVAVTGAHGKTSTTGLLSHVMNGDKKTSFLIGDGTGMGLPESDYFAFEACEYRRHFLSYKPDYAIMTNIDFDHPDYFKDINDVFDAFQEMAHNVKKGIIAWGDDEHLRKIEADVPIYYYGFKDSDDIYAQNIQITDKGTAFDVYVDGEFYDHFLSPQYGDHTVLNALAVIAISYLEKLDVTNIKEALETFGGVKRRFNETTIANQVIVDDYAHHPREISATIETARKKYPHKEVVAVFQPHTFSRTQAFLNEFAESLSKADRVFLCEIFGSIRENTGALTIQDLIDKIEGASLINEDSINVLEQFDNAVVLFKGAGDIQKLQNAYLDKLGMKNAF

Escherichia coli [11] = assay: Minimum inhibitory activity against Escherichia coli GC 4560; type: functional
[12] = Minimum inhibitory activity against Streptococcus pneumoniae GC1894 (PRSP); type: functional
Staphylococcus aureus [13] = assay: Minimum inhibitory activity against Staphylococcus aureus GC 4543 (MSSA); type: functional
Bacteria = assay: Minimum inhibitory activity against gram negative bacteria; type: functional
[14] = Partition coefficient (logP); type: physicochemical; settings: octanol/water

| Compound | IC50 [1] [µM] | MIC [2] [µg/mL] | MIC (Staphylococcus aureus [3]) [µg/mL] | MIC ([4]; Staphylococcus) [µg/mL] | IC50 [5] [µM] | MIC (Enterococcus faecalis [6]) [µg/mL] | MIC (Enterococcus faecalis [7]) [µg/mL] | MIC (Escherichia coli [8]) [µg/mL] | MIC (Staphylococcus aureus [9]) [µg/mL] | IC50 [10] [µM] | MIC (Escherichia coli [11]) [µg/mL] | MIC [12] [µg/mL] | MIC (Staphylococcus aureus [13]) [µg/mL] | MIC (Bacteria) [µg/mL] | logP [14] | MIC [4] [µg/mL] |
| --- | --- | --- | --- | --- | --- | --- | --- | --- | --- | --- | --- | --- | --- | --- | --- | --- |
| CC(C)(C)c1ccc(-n2nc3c(c2O)SCC3)cc1 | > 91.1 | > 128 | > 128 | > 128 | > 91.1 | > 128 | > 128 | > 128 | > 128 | > 91.1 | > 128 | 64 (≈ 233 µM) | 128 (≈ 466 µM) | – | – | – |
| Oc1c2c(nn1-c1ccc(Cl)c(Cl)c1)CCCC2 | > 88.3 | – | – | – | – | – | – | – | – | – | – | – | – | > 128 | – | – |
| Oc1c2c(nn1-c1ccc(F)cc1)CCS2 | 50.8 | > 128 | 2 (≈ 8.46 µM) | 0.25 (≈ 1.06 µM) | > 106 | 8 (≈ 33.9 µM) | 8 (≈ 33.9 µM) | > 128 | 2 (≈ 8.46 µM) | > 106 | 32 (≈ 135 µM) | 2 (≈ 8.46 µM) | 4 (≈ 16.9 µM) | – | – | – |
| Oc1c2c(nn1-c1ccccc1C(F)(F)F)CCS2 | > 87.3 | > 128 | 32 (≈ 112 µM) | 64 (≈ 224 µM) | > 87.3 | 16 (≈ 55.9 µM) | 32 (≈ 112 µM) | > 128 | 32 (≈ 112 µM) | > 87.3 | 128 (≈ 447 µM) | 8 (≈ 27.9 µM) | 32 (≈ 112 µM) | – | – | – |
| Oc1c2c(nn1-c1ccc(C(F)(F)F)cc1)CCS2 | 38.4 | > 128 | 2 (≈ 6.99 µM) | 4 (≈ 14 µM) | 43 | 8 (≈ 27.9 µM) | 16 (≈ 55.9 µM) | > 128 | 8 (≈ 27.9 µM) | > 87.3 | 128 (≈ 447 µM) | 0.5 (≈ 1.75 µM) | 1 (≈ 3.49 µM) | – | – | – |
| Oc1c2c(nn1-c1ccc(Br)cc1)CCS2 | 12.1 | > 128 | 2 (≈ 6.73 µM) | 1 (≈ 3.36 µM) | 30.3 | 32 (≈ 108 µM) | 16 (≈ 53.8 µM) | > 128 | 16 (≈ 53.8 µM) | 38.4 | > 128 | 1 (≈ 3.36 µM) | 4 (≈ 13.5 µM) | – | – | – |
| Oc1c2c(nn1-c1ccc(Cl)c(Cl)c1)CCS2 | 38.3 | > 128 | 8 (≈ 27.9 µM) | 16 (≈ 55.7 µM) | 48.8 | 64 (≈ 223 µM) | 128 (≈ 446 µM) | > 128 | 32 (≈ 111 µM) | 24.4 | 128 (≈ 446 µM) | 4 (≈ 13.9 µM) | 8 (≈ 27.9 µM) | – | 3.62 | – |
| CC1Cc2nn(-c3ccc(Cl)cc3)c(O)c2S1 (configuration not stated) | > 93.7 | > 128 | 32 (≈ 120 µM) | 16 (≈ 60 µM) | 64.1 | 2 (≈ 7.5 µM) | 32 (≈ 120 µM) | > 128 | 16 (≈ 60 µM) | > 93.7 | > 128 | 4 (≈ 15 µM) | 16 (≈ 60 µM) | – | – | – |
| Oc1c2c(nn1-c1ccccc1)CCS2 | > 115 | > 128 | 16 (≈ 73.3 µM) | – | 94.8 | 4 (≈ 18.3 µM) | 32 (≈ 147 µM) | > 128 | 16 (≈ 73.3 µM) | > 115 | > 128 | 4 (≈ 18.3 µM) | 32 (≈ 147 µM) | – | – | 16 (≈ 73.3 µM) |
| O=[N+]([O-])c1ccc(-n2nc3c(c2O)CSCC3)cc1 | > 90.2 | – | – | – | – | – | – | – | – | – | – | – | – | > 128 | – | – |
| Oc1c2c(nn1-c1cc(C(F)(F)F)cc(C(F)(F)F)c1)CCS2 | > 70.6 | > 128 | 32 (≈ 90.3 µM) | > 128 | > 70.6 | 16 (≈ 45.2 µM) | 32 (≈ 90.3 µM) | > 128 | 32 (≈ 90.3 µM) | > 70.6 | > 128 | 2 (≈ 5.65 µM) | 32 (≈ 90.3 µM) | – | – | – |
| CN[C@H](CC(C)C)C(=O)N[C@H]1C(=O)N[C@@H](CC(N)=O)C(=O)N[C@H]2C(=O)N[C@H]3C(=O)N[C@H](C(=O)N[C@H](C(=O)O)c4cc(O)cc(O)c4-c4cc3ccc4O)[C@H](O)c3ccc(c(Cl)c3)Oc3cc2cc(c3O[C@@H]2O[C@H](CO)[C@@H](O)[C@H](O)[C@H]2O[C@H]2C[C@](C)(N)[C@H](O)[C@H](C)O2)Oc2ccc(cc2Cl)[C@H]1O [VANCOMYCIN] | – | – | – | – | – | > 128 | 2 (≈ 1.38 µM) | > 128 | – | – | 0.25 (≈ 0.173 µM) | < 0.12 | – | – | – | – |
